According to patent EP0415598A1, “Cosmetic composition” (UNILEVER PLC, priority 1989, dated 1991):

Test system: hair growth
Test: Rat Hair Growth Test (topical application to clipped skin, cumulative hair weight)
Assay type: in vivo, male albino Wistar rats
Procedure: The effect of compounds on hair growth was assessed using male albino Wistar rats as an animal model. The rats were chosen from as few litters as possible and were each approximately 42 days of age at the start of the test. Each rat was housed individually to prevent licking.
In each comparison, 10 rats were used in each group and hair growth was assessed as follows:
A small patch of normal skin (4cm x 4cm) on the upper back of each rat was clipped at the start and 0.3 ml of a hair growth stimulant composition (or a control) applied topically twice daily and once on Saturdays and Sundays to each clipped area. The concentration of test compound in the composition was chosen from 0.01 to 20% by weight.
In any case, this concentration will lie within the range of from 0.01 to 20% by weight as stipulated above.
Hair was clipped from the area of the patch twice weekly, collected and weighed at each time point over a standard period of 3 months, and cumulative hair weight calculated. […] A positive response, i.e. an increase of at least 10% by weight of hair after 3 months treatment, compared with a control indicates the potential of the test compound to prevent hair loss and/or reverse baldness in human subjects.
In this example, the effect of topical application of N-acetyl glycine is shown. […]

Structure (SMILES): CC(=O)NCC(=O)O [N-acetyl glycine]
- increase in hair growth (10% (w/v) N-acetyl glycine vs control (distilled water, pH 4.2), after 58 days, statistically significant): 23%
- Mean Cumulative Hair Weight (mg) ± sd, after 58 days (10% (w/v) solution in distilled water adjusted to pH 4.2 with potassium hydroxide, topical, 0.3 ml twice daily, 58 days, control 505.9 ± 103.1, p =0.02 vs control): 622.8 ± 101.11 mg
